According to patent publication US11339165B2, “Pyrazolopyrimidines having activity against the respiratory syncytial virus (RSV)” (priority 2017, dated 2022):

How the values were obtained:
rgRSV224 virus = experiment: Antiviral activity: rgRSV224 (GFP) replication in HeLa cells; type: cell-based, respiratory syncytial virus (RSV); conditions: human respiratory syncytial virus, HeLa, 72 h, read-out: RSV HELA EC50 (μM), rgRSV224 virus (MOI=1), HeLa cells, GFP expression three days post-virus exposure
in vitro = conditions: human, TOX HELA CC50 (μM)

Cc1ccc(-c2cc(C(=O)N3CCc4ccccc4[C@H]3C)nc3cc(-c4ccc(N5CC[C@H](C(N)=O)C5)cc4F)nn23)cc1 [Compound 58, (3S)-1-(3-Fluoro-4-{5-[(1R)-1-methyl-1,2,3,4-tetrahydroisoquinoline-2-carbonyl]-7-(4-methylphenyl)pyrazolo[1,5-a]pyrimidin-2-yl}phenyl)pyrrolidine-3-carboxamide]
EC50 (rgRSV224 virus): 0.036 µM
CC50 at 3 days (in vitro): > 100 µM

C[C@@H]1c2ccccc2CCN1C(=O)c1cc(-c2ccc(F)cc2)n2nc(-c3ccc(N4CC[C@H](C(N)=O)C4)cc3F)cc2n1 [Compound 60, (3S)-1-{3-Fluoro-4-[7-(4-fluorophenyl)-5-[(1R)-1-methyl-1,2,3,4-tetrahydroisoquinoline-2-carbonyl]pyrazolo[1,5-a]pyrimidin-2-yl]phenyl}pyrrolidine-3-carboxamide]
EC50 (rgRSV224 virus): 0.029 µM
CC50 at 3 days (in vitro): 41.3 µM

C[C@@H]1c2ccccc2CCN1C(=O)c1cc(-c2ccc(C(F)(F)F)cc2)n2nc(-c3ccc(N4CC[C@H](C(N)=O)C4)cc3F)cc2n1 [Compound 61, (3S)-1-(3-Fluoro-4-{5-[(1R)-1-methyl-1,2,3,4-tetrahydroisoquinoline-2-carbonyl]-7-[4-(trifluoromethyl)phenyl]pyrazolo[1,5-a]pyrimidin-2-yl}phenyl)pyrrolidine-3-carboxamide]
EC50 (rgRSV224 virus): 0.193 µM
CC50 at 3 days (in vitro): > 100 µM

C[C@@H]1c2ccccc2CCN1C(=O)c1cc(-c2ccncc2)n2nc(-c3ccc(N4CC[C@H](C(N)=O)C4)cc3F)cc2n1 [Compound 63, (3S)-1-(3-Fluoro-4-{5-[(1R)-1-methyl-1,2,3,4-tetrahydroisoquinoline-2-carbonyl]-7-(pyridin-4-yl)pyrazolo[1,5-a]pyrimidin-2-yl}phenyl)pyrrolidine-3-carboxamide]
EC50 (rgRSV224 virus): 0.011 µM
CC50 at 3 days (in vitro): 27.2 µM

C[C@@H]1c2ccccc2CCN1C(=O)c1cc(-c2cncnc2)n2nc(-c3ccc(N4CC[C@H](C(N)=O)C4)cc3F)cc2n1 [Compound 64, (3S)-1-(3-Fluoro-4-{5-[(1R)-1-methyl-1,2,3,4-tetrahydroisoquinoline-2-carbonyl]-7-(pyrimidin-5-yl)pyrazolo[1,5-a]pyrimidin-2-yl}phenyl)pyrrolidine-3-carboxamide]
EC50 (rgRSV224 virus): 0.029 µM
CC50 at 3 days (in vitro): 8.9 µM

C[C@@H]1c2ccccc2CCN1C(=O)c1cc(C2CC2)n2nc(-c3ccc(N4CCC(C(N)=O)CC4)cc3F)cc2n1 [Compound 68, 1-(4-{7-Cyclopropyl-5-[(1R)-1-methyl-1,2,3,4-tetrahydroisoquinoline-2-carbonyl]-pyrazolo[1,5-a]pyrimidin-2-yl}-3-fluorophenyl)piperidine-4-carboxamide]
EC50 (rgRSV224 virus): 0.058 µM
CC50 at 3 days (in vitro): 26.6 µM

C[C@@H]1c2ccccc2CCN1C(=O)c1cc(C2CC2)n2nc(-c3ccc(N4CCCC(C(N)=O)C4)cc3F)cc2n1 (stereo partly drawn) [Compound 69, 1-(4-{7-Cyclopropyl-5-[(1R)-1-methyl-1,2,3,4-tetrahydroisoquinoline-2-carbonyl]-pyrazolo[1,5-a]pyrimidin-2-yl}-3-fluorophenyl)piperidine-3-carboxamide]
EC50 (rgRSV224 virus): 0.059 µM
CC50 at 3 days (in vitro): 33.2 µM

C[C@@H]1c2ccccc2CCN1C(=O)c1cc(C2CC2)n2nc(-c3ccc(N4CCC(CC(N)=O)CC4)cc3F)cc2n1 [Compound 70, 2-[1-(4-{7-Cyclopropyl-5-[(1R)-1-methyl-1,2,3,4-tetrahydroisoquinoline-2-carbonyl]-pyrazolo[1,5-a]pyrimidin-2-yl}-3-fluorophenyl)piperidin-4-yl] acetamide]
EC50 (rgRSV224 virus): 0.104 µM
CC50 at 3 days (in vitro): 28.2 µM

C[C@@H]1c2ccccc2CCN1C(=O)c1cc(C2CC2)n2nc(-c3ccc(N4CCCC(CC(N)=O)C4)cc3F)cc2n1 (stereo partly drawn) [Compound 71, 2-[1-(4-{7-Cyclopropyl-5-[(1R)-1-methyl-1,2,3,4-tetrahydroisoquinoline-2-carbonyl]-pyrazolo[1,5-a]pyrimidin-2-yl}-3-fluorophenyl)piperidin-3-yl]acetamide]
EC50 (rgRSV224 virus): 0.105 µM
CC50 at 3 days (in vitro): 29.8 µM

CNC(=O)C1CCCN(c2ccc(-c3cc4nc(C(=O)N5CCc6ccccc6[C@H]5C)cc(C5CC5)n4n3)c(F)c2)C1 (stereo partly drawn) [Compound 73, 1-(4-{7-Cyclopropyl-5-[(1R)-1-methyl-1,2,3,4-tetrahydroisoquinoline-2-carbonyl]-pyrazolo[1,5-a]pyrimidin-2-yl}-3-fluorophenyl)-N-methylpiperidine-3-carboxamide]
EC50 (rgRSV224 virus): 0.101 µM
CC50 at 3 days (in vitro): > 100 µM

C[C@@H]1c2ccccc2CCN1C(=O)c1cc(C2CC2)n2nc(-c3ccc(N4CC[C@@H](OC(N)=O)C4)cc3F)cc2n1 [Compound 77, (3R)-1-(4-{7-Cyclopropyl-5-[(1R)-1-methyl-1,2,3,4-tetrahydroisoquinoline-2-carbonyl]pyrazolo[1,5-a]pyrimidin-2-yl}-3-fluorophenyl)pyrrolidin-3-yl carbamate]
EC50 (rgRSV224 virus): 0.082 µM
CC50 at 3 days (in vitro): > 100 µM

C[C@@H]1c2ccccc2CCN1C(=O)c1cc(C2CC2)n2nc(-c3ccc(N4CC[C@H](OC(N)=O)C4)cc3F)cc2n1 [Compound 78, (3S)-1-(4-{7-Cyclopropyl-5-[(1R)-1-methyl-1,2,3,4-tetrahydroisoquinoline-2-carbonyl]pyrazolo[1,5-a]pyrimidin-2-yl}-3-fluorophenyl)pyrrolidin-3-yl carbamate]
EC50 (rgRSV224 virus): 0.055 µM
CC50 at 3 days (in vitro): 47.3 µM

C[C@@H]1c2ccccc2CCN1C(=O)c1cc(C2CC2)n2nc(-c3ccc(N4CC[C@@H](OC(N)=O)C4)nc3F)cc2n1 [Compound 85, (3R)-1-(5-{7-Cyclopropyl-5-[(1R)-1-methyl-1,2,3,4-tetrahydroisoquinoline-2-carbonyl]-pyrazolo[1,5-a]pyrimidin-2-yl}-6-fluoropyridin-2-yl)pyrrolidin-3-yl carbamate]
EC50 (rgRSV224 virus): 0.152 µM
CC50 at 3 days (in vitro): > 100 µM

COc1cc(N2CC[C@H](C(N)=O)C2)nc(F)c1-c1cc2nc(C(=O)N3CCc4ccccc4[C@H]3C)cc(C3CC3)n2n1 [Compound 86, (3S)-1-(5-{7-Cyclopropyl-5-[(1R)-1-methyl-1,2,3,4-tetrahydroisoquinoline-2-carbonyl]-pyrazolo[1,5-a]pyrimidin-2-yl}-6-fluoro-4-methoxypyridin-2-yl)pyrrolidine-3-carboxamide]
EC50 (rgRSV224 virus): 0.161 µM
CC50 at 3 days (in vitro): 49.5 µM

C[C@@H]1c2ccccc2CCN1C(=O)c1cc(C2CC2)n2nc(-c3ncc(N4CC[C@H](C(N)=O)C4)nc3F)cc2n1 [Compound 88, (3S)-1-(5-{7-Cyclopropyl-5-[(1R)-1-methyl-1,2,3,4-tetrahydroisoquinoline-2-carbonyl]-pyrazolo[1,5-a]pyrimidin-2-yl}-6-fluoropyrazin-2-yl)pyrrolidine-3-carboxamide]
EC50 (rgRSV224 virus): 0.017 µM
CC50 at 3 days (in vitro): 47.6 µM

Cc1cc(N2CC[C@H](C(N)=O)C2)cc(F)c1-c1cc2nc(C(=O)N3CCc4ccccc4[C@H]3C)cc(C3CC3)n2n1 [Compound 89, (3S)-1-(4-{7-Cyclopropyl-5-[(1R)-1-methyl-1,2,3,4-tetrahydroisoquinoline-2-carbonyl]pyrazolo[1,5-a]pyrimidin-2-yl}-3-fluoro-5-methylphenyl)pyrrolidine-3-carboxamide]
EC50 (rgRSV224 virus): 0.165 µM
CC50 at 3 days (in vitro): 33.4 µM

C[C@@H]1c2ccccc2CCN1C(=O)c1cc(C2CC2)n2nc(-c3ccc(N4CC(CC(N)=O)C4)nc3F)cc2n1 [Compound 92, 2-[1-(5-{7-Cyclopropyl-5-[(1R)-1-methyl-1,2,3,4-tetrahydroisoquinoline-2-carbonyl]-pyrazolo[1,5-a]pyrimidin-2-yl}-6-fluoropyridin-2-yl)azetidin-3-yl]acetamide]
EC50 (rgRSV224 virus): 0.071 µM
CC50 at 3 days (in vitro): 41.5 µM
